The source of these data is patent US20220204510A1, “2,3-DIHYDRO-1H-PYRROLIZINE-7-FORMAMIDE DERIVATIVE AND APPLICATION THEREOF” (CHIA TAI TIANQING PHARMACEUTICAL GROUP CO., LTD., priority 2018, published 2022).

Molecules are shown by their SMILES. Like-named read-outs stand apart in the source and are kept apart here.

The target in data set [1] is T1, CYP3A4 (Homo sapiens, UniProt P08684).
T1 construct: from tissue; host or cells: human liver microsomes
Kind of data set: Inhibition of human liver microsomal cytochrome P450 isoenzymes. The class given is in vitro ADME. To be noted: human liver microsomes. The procedure:
(§1) Experimental objective: to determine the inhibitory effect of the test compound on the activity of human liver microsomal cytochrome P450 isoenzymes (CYP1A2, CYP2C9, CYP2C19, CYP2D6 and CYP3A4). Experimental procedures: first, the test compound (10 mM) was diluted in gradient to prepare working solutions (100× final concentration) at concentrations of: 5, 1.5, 0.5, 0.15, 0.05, 0.015, and 0.005 mM, and working solutions of positive inhibitors for P450 isoenzymes (CYP1A2, CYP2C9, CYP2C19, CYP2D6, and CYP3A4) and the specific substrate mixtures thereof (5 in 1) were prepared simultaneously; human liver microsomes frozen in a−80° C. refrigerator were thawed on ice, and after all thawed, the human liver microsomes were diluted with PB to prepare a working solution at a specific concentration (0.253 mg/mL); 20 μL of the substrate mixture (20 μL of PB was added into the blank well) and 158 μL of the working solution of human liver microsomes were added into the reaction plate which was then placed on ice for use; then 2 μL of the test compound at each concentration (N=1) and a specific inhibitor (N=2) were added into the corresponding well, and the group without the inhibitor (test compound or the positive inhibitor) was added with a corresponding organic solvent as a control sample (the test compound control sample was 1:1 DMSO:MeOH; the positive control sample was 1:9 DMSO:MeOH); after pre-incubation under a 37° C. water bath for 10 min, 20 μL of a coenzyme factor (NADPH) solution was added into the reaction plate and incubated under a 37° C. water bath for 10 min, 400 μL of a cold acetonitrile solution (the internal standard was 200 ng/mL Tolbutamide and Labetalol) was added to terminate the reaction, and the reaction plate was placed on a shaker and shaken for 10 min; after centrifugation at 4,000 rpm for 20 min, 200 μL of the supernatant was collected and added to 100 μL of water to dilute the sample, and, finally, the plate was sealed, oscillated shaken evenly, and subjected to LC/MS/MS detection.
(In general: Liver microsomes are vesicles of endoplasmic reticulum, rich in cytochrome P450 enzymes.)

The target in data set [2] is T2, CYP2C19 (Homo sapiens, UniProt P33261).
T2 construct: from tissue; host or cells: human liver microsomes
T2 sequence (P33261 whole entry): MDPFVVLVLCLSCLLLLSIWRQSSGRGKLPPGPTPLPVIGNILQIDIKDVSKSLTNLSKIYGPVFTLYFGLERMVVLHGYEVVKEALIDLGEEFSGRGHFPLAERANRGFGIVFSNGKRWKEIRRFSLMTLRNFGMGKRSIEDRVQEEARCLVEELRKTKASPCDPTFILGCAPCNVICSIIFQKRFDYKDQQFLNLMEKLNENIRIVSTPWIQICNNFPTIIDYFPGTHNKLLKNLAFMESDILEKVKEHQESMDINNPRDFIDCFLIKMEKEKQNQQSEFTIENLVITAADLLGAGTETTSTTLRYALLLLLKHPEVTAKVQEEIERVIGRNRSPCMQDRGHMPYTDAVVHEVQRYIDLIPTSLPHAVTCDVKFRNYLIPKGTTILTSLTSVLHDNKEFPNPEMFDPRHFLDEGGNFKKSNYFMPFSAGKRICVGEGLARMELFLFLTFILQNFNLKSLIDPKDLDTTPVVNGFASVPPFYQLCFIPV
Described as above. It counts as in vitro ADME. To be noted: human liver microsomes. The procedure: as §1

In data set [3] the target is T3, CYP2C9 (Homo sapiens, UniProt P11712).
T3 construct: from tissue; host or cells: human liver microsomes
T3 sequence (P11712 whole entry): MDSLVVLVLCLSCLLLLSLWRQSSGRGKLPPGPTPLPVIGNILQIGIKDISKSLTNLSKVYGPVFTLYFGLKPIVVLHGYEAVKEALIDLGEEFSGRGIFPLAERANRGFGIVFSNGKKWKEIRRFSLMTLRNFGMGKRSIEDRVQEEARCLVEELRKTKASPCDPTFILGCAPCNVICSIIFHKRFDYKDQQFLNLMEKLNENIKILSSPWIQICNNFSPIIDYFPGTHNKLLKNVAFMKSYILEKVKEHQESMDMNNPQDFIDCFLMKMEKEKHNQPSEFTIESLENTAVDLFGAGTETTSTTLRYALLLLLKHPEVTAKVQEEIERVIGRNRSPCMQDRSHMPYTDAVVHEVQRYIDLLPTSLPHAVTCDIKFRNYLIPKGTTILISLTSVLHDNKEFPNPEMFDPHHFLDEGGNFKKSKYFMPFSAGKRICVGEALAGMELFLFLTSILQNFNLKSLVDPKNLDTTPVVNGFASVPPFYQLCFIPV
The description is as above. It counts as in vitro ADME. To be noted: human liver microsomes. The procedure:
as §1

Data set [4] concerns the target T4, CYP2D6 (Homo sapiens, UniProt P10635).
T4 construct: from tissue; host or cells: human liver microsomes
Described as above. To be noted: human liver microsomes. It counts as in vitro ADME. On the procedure: as §1

In data set [5] the target is T5, CYP1A2 (Homo sapiens, UniProt P05177).
T5 construct: from tissue; host or cells: human liver microsomes
T5 sequence (P05177 1-516): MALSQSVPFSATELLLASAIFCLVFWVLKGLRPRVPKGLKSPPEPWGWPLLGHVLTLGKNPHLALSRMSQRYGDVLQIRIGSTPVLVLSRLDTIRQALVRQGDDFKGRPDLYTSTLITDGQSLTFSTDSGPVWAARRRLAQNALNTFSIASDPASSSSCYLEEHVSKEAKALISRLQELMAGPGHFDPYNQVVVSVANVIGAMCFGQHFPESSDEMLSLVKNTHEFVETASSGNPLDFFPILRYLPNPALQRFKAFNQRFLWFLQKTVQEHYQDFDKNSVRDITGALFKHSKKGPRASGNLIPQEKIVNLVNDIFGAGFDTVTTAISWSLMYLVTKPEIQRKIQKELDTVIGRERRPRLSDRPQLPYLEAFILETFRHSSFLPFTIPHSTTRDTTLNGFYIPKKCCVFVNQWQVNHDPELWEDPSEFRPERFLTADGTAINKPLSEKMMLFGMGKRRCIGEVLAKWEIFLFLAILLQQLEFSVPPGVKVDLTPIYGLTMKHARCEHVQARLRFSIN
The data set is described as above. It counts as in vitro ADME. To be noted: human liver microsomes. On the procedure: as §1

The test system of data set [6] is HBV. Kind of data set: qPCR test in the HBV in vitro test (HBV DNA in HepG2.2.15 cells). The class given is cell-based. To be noted: Hepatitis B virus, 192 h, HBV DNA in HepG2.2.15 culture medium, day 8, read-out: Half maximal inhibitory concentration (EC50) of HBV. On the procedure:
To evaluate the inhibitory effect of the compound on HBV by detecting content of HBV DNA in HepG2.2.15 cells in a real-time qPCR test, with EC50 of the compound as an indicator.
3.1. HepG2.2.15 cells (4×10^4 cells/well) were inoculated into a 96-well plate and cultured at 37° C. in 5% CO2 overnight. 3.2. On day 2, the compound was 3-fold diluted in gradient for a total of 8 dilution gradients. The compound at different concentrations was added into the culture wells in duplicate. The final concentration of DMSO in the culture medium was 1%. 1 μM GLS4 was used as a 100% inhibition control (the structure of GLS4 disclosed in WO2008154817A1 is as follows:
1% DMSO was used as a 0% inhibition control. 3.3. On day 5, the culture medium was replaced with a fresh culture medium containing the compound. 3.4. On day 8, the culture medium in the culture wells was collected, and the high-throughput DNA purification kit (Qiagen-51162) was used to extract DNA. For specific steps, refer to the product manual.
3.6. Each well of the 96-well PCR plate was added with 15 μL of the reaction mixture, and then with 10 μL of sample DNA or HBV DNA standard. 3.7. The reaction conditions for PCR: heating at 95° C. for 10 min, degeneration at 95° C. for 15 s, and extension at 60° C. for 1 min, with a total of 40 cycles.
3.8.1. Calculation of the inhibition percentage: % Inh.=[1−(DNA copy number in the sample−DNA copy number in 1 μM GLS4)/(DNA copy number in the DMSO control−DNA copy number in 1 μM GLS4)]×100. 3.8.2. Calculation of EC50: half maximal inhibitory concentration (EC50) of the compound for HBV was calculated using GraphPad Prism software. 3.8.3.
On the technique in general: In qPCR the cycle at which signal appears reflects the starting amount.

Data set [7] in a line: Metabolic stability in liver microsomes. It counts as in vitro ADME, human. The procedure: (§2) Experimental objective: to evaluate the metabolic stability of the test compound in CD-1 mice and human liver microsomes
(§3) Experimental procedures: first, the test compound (10 mM) was subjected to a two-step dilution, where the compound was diluted to an intermediate concentration of 100 μM with 100% methanol, and the working solution was diluted to 10 μM with a potassium phosphate buffer; eight 96-well incubation plates were prepared, and named T0, T5, T10, T20, T30, T60, Blank and NCF60, respectively; the reaction time points corresponding to the first 6 incubation plates were 0, 5, 10, 20, 30 and 60 min, respectively; for the Blank plate, neither the test compound nor a control compound was added, and for the NCF60 plate, potassium phosphate buffer was used in an incubation of 60 min in place of a NADPH regeneration system solution; 10 μL of the test compound working solution and 80 μL of the microsome working solution (liver microsome protein concentration was 0.625 mg/mL) were added to the T0, T5, T10, T20, T30, T60 and NCF60 plates, while only the microsome working solution was added to the Blank plate, and all the incubation plates were then placed in a 37° C. water bath for pre-incubation for about 10 min; after the pre-incubation, 10 μL of a NADPH regeneration system working solution was added into each sample well of all the plates except the NCF60 plate and T0 plate to start the reaction, and 10 μL of potassium phosphate buffer was added to each well of the NCF60 plate; therefore, in the test compound or control compound samples, the final reaction concentrations of the compound, testosterone, diclofenac and propafenone were 1 μM, the concentration of the liver microsomes was 0.5 mg/mL, and the final concentrations of DMSO and acetonitrile in the reaction system were 0.01% (v/v) and 0.99% (v/v), respectively; after incubation for an appropriate time (such as 5, 10, 20, 30, and 60 min), 300 μL of a stop solution (acetonitrile solution containing 100 ng/mL tolbutamide and 100 ng/mL labetalol) was added to each sample well to stop the reaction; 300 μL of the stop solution and then 10 μL of the NADPH working solution were added to the T0 plate, all the sample plates were shaken and centrifuged in a centrifuge (3220×g) for 20 min, and then 100 μL of supernatant was taken from each well and diluted with 300 μL of pure water for liquid chromatography-tandem mass spectrometry analysis.

Data set [8] can be described thus: Metabolic stability in liver microsomes. It counts as in vitro ADME. To be noted: mouse, CD-1 mice liver microsomes. On the procedure:
as §2, §3

Broadly, the IC50 is the concentration that inhibits the measured activity by half. Usually half-life stands for the time in which the quantity being followed falls by half. High values mean slow loss, low ones fast loss. The CLint scaled is a measure of how fast metabolising enzymes remove a compound, apart from limits set by blood flow. A high value points to faster metabolism.

T4 sequence (P10635 whole entry): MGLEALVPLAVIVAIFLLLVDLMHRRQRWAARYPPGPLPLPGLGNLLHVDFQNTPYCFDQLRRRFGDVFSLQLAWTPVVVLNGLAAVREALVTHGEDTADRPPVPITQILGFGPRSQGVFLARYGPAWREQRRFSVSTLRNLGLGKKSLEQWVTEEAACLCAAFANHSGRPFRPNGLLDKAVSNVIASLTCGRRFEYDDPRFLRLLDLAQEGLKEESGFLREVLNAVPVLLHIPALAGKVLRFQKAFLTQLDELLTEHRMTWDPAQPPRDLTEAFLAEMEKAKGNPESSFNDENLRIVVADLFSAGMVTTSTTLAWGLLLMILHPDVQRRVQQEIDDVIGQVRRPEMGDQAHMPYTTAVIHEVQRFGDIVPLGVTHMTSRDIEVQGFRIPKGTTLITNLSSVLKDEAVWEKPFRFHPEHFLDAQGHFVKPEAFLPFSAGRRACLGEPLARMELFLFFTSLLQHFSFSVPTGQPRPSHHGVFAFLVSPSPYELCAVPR
T1 sequence (P08684 whole entry): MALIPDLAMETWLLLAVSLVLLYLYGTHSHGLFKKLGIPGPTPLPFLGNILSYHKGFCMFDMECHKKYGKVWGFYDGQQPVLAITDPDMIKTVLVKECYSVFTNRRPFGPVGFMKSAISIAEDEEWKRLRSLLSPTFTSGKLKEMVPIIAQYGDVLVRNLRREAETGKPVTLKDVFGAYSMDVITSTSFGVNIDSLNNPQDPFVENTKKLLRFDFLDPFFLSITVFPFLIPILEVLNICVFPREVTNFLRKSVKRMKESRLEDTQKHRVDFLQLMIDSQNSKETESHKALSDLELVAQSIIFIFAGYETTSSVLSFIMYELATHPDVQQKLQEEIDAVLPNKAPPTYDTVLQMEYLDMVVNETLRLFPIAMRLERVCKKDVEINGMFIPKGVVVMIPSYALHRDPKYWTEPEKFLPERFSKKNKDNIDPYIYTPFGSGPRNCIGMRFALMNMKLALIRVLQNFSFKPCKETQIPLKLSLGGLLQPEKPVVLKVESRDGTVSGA

Turning to `C[C@]1(NC(=O)C(=O)c2c(Cl)c(C(=O)Nc3ccc(F)c(F)c3)c3n2CCC3)CC[C@@H](CC(=O)O)CC1` [Compound 17], the IC50 in data set [1], in data set [2], in data set [3], in data set [4] and in data set [5] was greater than 50 µM each time. Also, the EC50 in data set [6] was 0.007 µM. Moreover, the half-life at 1 μM in data set [7] (Human liver microsomes, 1 μM compound, 0.5 mg/mL) is greater than 2.42 h; in data set [8] (1 μM compound, 0.5 mg/mL) it was greater than 2.42 h. For the same molecule, the CLint scaled at 1 μM in data set [7] (human liver microsomes) was less than 8.6 mL/min/kg; in data set [8], less than 38 mL/min/kg. In addition, the microsomal CLint at 1 μM in data set [7] (human liver microsomes, read-out: CLint(mic)) is less than 9.6 µL/min/mg; in data set [8] (read-out: CLint(mic)), less than 9.6 µL/min/mg.
